From ChEMBL document CHEMBL1201862, “PubChem BioAssay data set” (2004)
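Following 48 hours of exposure in 96-well plates, responses at five concentrations were used to interpolate endpoints linearly. Abbreviation: GI50, concentration required for 50% inhibition of growth.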 Calls of active or inactive are those of the source. Rule as the data show it: active = GI50 up to about 1.1 µM and inactive = higher.

Tests used:
Test in all cases: NCI tumour cell line growth inhibition, 48 h
[1] = test system: 786-0
[2] = test system: A549
[3] = test system: ACHN
[4] = test system: CAKI-1
[5] = test system: CCRF-CEM
[6] = test system: COLO 205
[7] = test system: DLD-1
[8] = test system: DMS-114
[9] = test system: DMS-273
[10] = test system: EKVX
[11] = test system: HCC 2998
[12] = test system: HCT-116
[13] = test system: HCT-15
[14] = test system: HL-60
[15] = test system: HOP-18
[16] = test system: HOP-62
[17] = test system: HOP-92
[18] = test system: HT-29
[19] = test system: IGROV-1
[20] = test system: K562
[21] = test system: KM-20L2
[22] = test system: KM12
[23] = test system: LOX IMVI
[24] = test system: LXFL 529
[25] = test system: M14
[26] = test system: M19-MEL
[27] = test system: MOLT-4
[28] = test system: Malme-3M
[29] = test system: NCI-H226
[30] = test system: NCI-H23
[31] = test system: NCI-H460
[32] = test system: NCI-H522
[33] = test system: OVCAR-3
[34] = test system: OVCAR-4
[35] = test system: OVCAR-8
[36] = test system: RPMI-8226
[37] = test system: RXF 393
[38] = test system: SF-268
[39] = test system: SF-295
[40] = test system: SF-539
[41] = test system: SK-MEL-28
[42] = test system: SK-MEL-2
[43] = test system: SK-MEL-5
[44] = test system: SK-OV-3
[45] = test system: SN12C
[46] = test system: SNB-19
[47] = test system: SNB-75
[48] = test system: SNB-78
[49] = test system: SR
[50] = test system: SW-620
[51] = test system: TK-10
[52] = test system: U-251
[53] = test system: UACC-62
[54] = test system: UO-31
[55] = test system: XF498
[56] = test system: A498
[57] = test system: UACC-257
[58] = test system: OVCAR-5

SMILES: COc1ccc(-c2cc(O)c3cc4c(cc3n2)OCO4)cc1OC
- GI50 [1]: > 100 µM (inactive)
- GI50 [2]: > 100 µM (inactive)
- GI50 [3]: > 100 µM (inactive)
- GI50 [4]: > 100 µM (inactive)
- GI50 [5]: > 100 µM (inactive)
- GI50 [6]: > 100 µM (inactive)
- GI50 [7]: > 100 µM (inactive)
- GI50 [8]: > 100 µM (inactive)
- GI50 [9]: > 100 µM (inactive)
- GI50 [10]: > 100 µM (inactive)
- GI50 [11]: > 100 µM (inactive)
- GI50 [12]: > 100 µM (inactive)
- GI50 [13]: > 100 µM
- GI50 [14]: > 100 µM (inactive)
- GI50 [15]: > 100 µM (inactive)
- GI50 [16]: > 100 µM (inactive)
- GI50 [17]: > 100 µM (inactive)
- GI50 [18]: > 100 µM (inactive)
- GI50 [19]: > 100 µM (inactive)
- GI50 [20]: > 100 µM (inactive)
- GI50 [21]: > 100 µM (inactive)
- GI50 [22]: > 100 µM (inactive)
- GI50 [23]: > 100 µM (inactive)
- GI50 [24]: > 100 µM (inactive)
- GI50 [25]: > 100 µM (inactive)
- GI50 [26]: > 100 µM (inactive)
- GI50 [27]: > 100 µM (inactive)
- GI50 [28]: > 100 µM (inactive)
- GI50 [29]: > 100 µM (inactive)
- GI50 [30]: > 100 µM (inactive)
- GI50 [31]: > 100 µM (inactive)
- GI50 [32]: > 100 µM (inactive)
- GI50 [33]: > 100 µM (inactive)
- GI50 [34]: > 100 µM (inactive)
- GI50 [35]: > 100 µM (inactive)
- GI50 [36]: > 100 µM (inactive)
- GI50 [37]: > 100 µM (inactive)
- GI50 [38]: > 100 µM (inactive)
- GI50 [39]: > 100 µM (inactive)
- GI50 [40]: > 100 µM (inactive)
- GI50 [41]: > 100 µM (inactive)
- GI50 [42]: > 100 µM (inactive)
- GI50 [43]: 65.6 µM (inactive)
- GI50 [44]: > 100 µM (inactive)
- GI50 [45]: > 100 µM (inactive)
- GI50 [46]: > 100 µM (inactive)
- GI50 [47]: > 100 µM (inactive)
- GI50 [48]: > 100 µM (inactive)
- GI50 [49]: 45 µM (inactive)
- GI50 [50]: > 100 µM (inactive)
- GI50 [51]: > 100 µM (inactive)
- GI50 [52]: > 100 µM (inactive)
- GI50 [53]: > 100 µM (inactive)
- GI50 [54]: > 100 µM (inactive)
- GI50 [55]: > 100 µM (inactive)

SMILES: N#Cc1c(-c2ccccc2)cc(-c2cccs2)c(C#N)c1N
- GI50 [1]: > 100 µM (inactive)
- GI50 [56]: > 100 µM (inactive)
- GI50 [2]: > 100 µM (inactive)
- GI50 [3]: > 100 µM (inactive)
- GI50 [4]: > 100 µM (inactive)
- GI50 [5]: > 100 µM (inactive)
- GI50 [6]: > 10 µM (inactive)
- GI50 [7]: > 100 µM (inactive)
- GI50 [8]: > 10 µM (inactive)
- GI50 [9]: > 100 µM (inactive)
- GI50 [10]: > 100 µM (inactive)
- GI50 [11]: > 100 µM (inactive)
- GI50 [12]: > 100 µM (inactive)
- GI50 [13]: > 100 µM
- GI50 [14]: > 100 µM (inactive)
- GI50 [15]: 0.0134 µM (active)
- GI50 [16]: > 100 µM (inactive)
- GI50 [17]: > 100 µM (inactive)
- GI50 [18]: > 100 µM (inactive)
- GI50 [19]: > 10 µM (inactive)
- GI50 [20]: > 100 µM (inactive)
- GI50 [21]: > 100 µM (inactive)
- GI50 [22]: > 100 µM (inactive)
- GI50 [23]: > 100 µM (inactive)
- GI50 [24]: > 100 µM (inactive)
- GI50 [25]: > 100 µM (inactive)
- GI50 [26]: > 10 µM (inactive)
- GI50 [27]: > 100 µM (inactive)
- GI50 [28]: > 100 µM (inactive)
- GI50 [31]: > 100 µM (inactive)
- GI50 [32]: > 100 µM (inactive)
- GI50 [33]: > 100 µM (inactive)
- GI50 [34]: > 100 µM (inactive)
- GI50 [35]: > 100 µM (inactive)
- GI50 [36]: > 100 µM (inactive)
- GI50 [38]: > 100 µM (inactive)
- GI50 [39]: > 100 µM (inactive)
- GI50 [40]: > 100 µM (inactive)
- GI50 [43]: > 100 µM (inactive)
- GI50 [44]: > 10 µM (inactive)
- GI50 [45]: > 100 µM (inactive)
- GI50 [46]: > 100 µM (inactive)
- GI50 [47]: 12.2 µM (inactive)
- GI50 [48]: > 100 µM (inactive)
- GI50 [50]: > 100 µM (inactive)
- GI50 [51]: > 100 µM (inactive)
- GI50 [52]: > 100 µM (inactive)
- GI50 [57]: > 100 µM (inactive)
- GI50 [53]: > 10 µM (inactive)
- GI50 [55]: > 100 µM (inactive)

SMILES: CC(=O)OCCOCNC(=S)N/N=C(\C)c1cccs1
- GI50 [1]: > 100 µM (inactive)
- GI50 [56]: > 100 µM (inactive)
- GI50 [2]: > 100 µM (inactive)
- GI50 [3]: > 100 µM (inactive)
- GI50 [5]: 61.8 µM (inactive)
- GI50 [6]: > 100 µM (inactive)
- GI50 [7]: > 100 µM (inactive)
- GI50 [8]: > 100 µM (inactive)
- GI50 [9]: > 100 µM (inactive)
- GI50 [10]: > 100 µM (inactive)
- GI50 [11]: > 100 µM (inactive)
- GI50 [12]: > 100 µM (inactive)
- GI50 [13]: > 100 µM
- GI50 [14]: > 100 µM (inactive)
- GI50 [15]: > 100 µM (inactive)
- GI50 [16]: > 100 µM (inactive)
- GI50 [18]: > 100 µM (inactive)
- GI50 [19]: > 100 µM (inactive)
- GI50 [20]: > 100 µM (inactive)
- GI50 [21]: > 100 µM (inactive)
- GI50 [22]: > 100 µM (inactive)
- GI50 [23]: > 100 µM (inactive)
- GI50 [24]: > 100 µM (inactive)
- GI50 [25]: > 100 µM (inactive)
- GI50 [26]: > 100 µM (inactive)
- GI50 [27]: > 100 µM (inactive)
- GI50 [28]: > 100 µM (inactive)
- GI50 [29]: > 100 µM (inactive)
- GI50 [30]: > 100 µM (inactive)
- GI50 [31]: > 100 µM (inactive)
- GI50 [32]: > 100 µM (inactive)
- GI50 [33]: > 100 µM (inactive)
- GI50 [34]: > 100 µM (inactive)
- GI50 [58]: > 100 µM (inactive)
- GI50 [35]: > 100 µM (inactive)
- GI50 [36]: > 100 µM (inactive)
- GI50 [37]: > 100 µM (inactive)
- GI50 [38]: > 100 µM (inactive)
- GI50 [39]: > 100 µM (inactive)
- GI50 [40]: > 100 µM (inactive)
- GI50 [41]: > 100 µM (inactive)
- GI50 [42]: > 100 µM (inactive)
- GI50 [43]: > 100 µM (inactive)
- GI50 [44]: > 100 µM (inactive)
- GI50 [45]: > 100 µM (inactive)
- GI50 [46]: > 100 µM (inactive)
- GI50 [47]: > 100 µM (inactive)
- GI50 [48]: > 100 µM (inactive)
- GI50 [49]: > 100 µM (inactive)
- GI50 [50]: > 100 µM (inactive)
- GI50 [51]: > 100 µM (inactive)
- GI50 [52]: > 100 µM (inactive)
- GI50 [57]: > 100 µM (inactive)
- GI50 [53]: > 100 µM (inactive)
- GI50 [54]: > 100 µM (inactive)
- GI50 [55]: > 100 µM (inactive)
